Reference: patent EP3322687B1, “2-BENZYL-INDANONE COMPOUNDS AS ANTICANCER AGENT AND A PROCESS FOR PREPARATION THEREOF” (Council of Scientific and Industrial Research, priority 2015, dated 2017)
“And” between values parts separate entries of the source, which are not always exact repeats. Equal entries are not always repeated.

How the values were obtained:
[1] = test system: tubulin protein; type: biochemical; settings: tubulin 3mg/mL, 37° C, 340 nm, 1h; read-out: Tubulin polymerisation inhibition IC50
Description: The tubulin polymerization experiment was performed using 'assay kit'(Cytoskeleton USA) following manufacturer's protocol based on the procedure described by of Shelanski et al, (1973) and Lee et al. (1977). Briefly, tubulin protein (3mg/mL) in tubulin polymerization buffer (80 mM PIPES, pH 6.9, 2 mM MgCl2, 0.5 mM EGTA, 1 mM GTP and 15% glycerol) was placed in prewarmed 96-well microtiter plates at 37° C in the presence of test compounds with variable concentrations. All samples were mixed well and polymerization was monitored kinetically at 340 nm every min for 1h using a Spectramax plate reader. The IC50 value was determined from dose-dependent analysis and is defined as the concentration that inhibits the rate of polymerization by 50%. Podophyllotoxin was used as standard tubulin polymerisation inhibitor as positive control.

[2] = test system: Ehrlich Ascites Carcinoma (EAC); type: in vivo, Swiss mice
Description: Ehrlich ascites carcinoma (EAC) cells were collected from the peritoneal cavity of the Swiss mice harbouring 8-10 days old ascitic tumor. 1x10^7 EAC cells were injected intraperitoneally in Swiss mice selected for the experiment on day 0. The next day, animals were randomized and divided into different groups. The treatment groups contained 7 animals each and control group contained 10 animals. The treatment group was treated with 20 mg/kg of Compound 2 intra-peritoneally from day 1-9. One more of the treatment group received 5-fluorouracil (20 mg/kg, i.p) and it served as positive control. The tumor bearing control group was similarly administered normal saline (0.2 ml, i.p.). On day 12, animals were sacrificed and ascitic fluid was collected from peritoneal cavity of each mouse for the evaluation of tumor growth. Percent tumor growth inhibition was calculated based on the total number of tumor cells present in the peritoneal cavity as on day 12 of the experiment using the following formula. Percent tumor growth inhibition = (Av.no.of cells in control group−Av.no.of cells in treated group)/(Av.no.of cells in control group) × 100 [formula]

[3] = test system: Ehrlich Tumor (solid); type: in vivo, Swiss mice
Description: Ehrlich ascites carcinoma (EAC) cells were collected from the peritoneal cavity of the Swiss mice harbouring 8-10 days old ascitic tumor. 1x10^7 EAC cells were injected intramuscularly in right thigh of Swiss male mice selected for the experiment on day 0. The next day, animals were randomized and divided into different groups. Two treatment groups contained 7 animals each and one control group contained 10 animals. The first treatment group was given compound 2 (20 mg/kg i/p) from day 1-9. The second treatment group was treated with 5-fluorouracil (22 mg/kg, i.p) from day 1-9 and it served as positive control. The control group was similarly administered normal saline (0.2 ml, i.p.) from day 1-9. On day 9 & 13, tumor bearing thigh of each animal was shaved and longest and shortest diameters of the tumor were measured with the help of vernier caliper. Tumor weight of each animal was calculated using the following formula. Tumor weight (mg) = (Length(mm) × ([width(mm)])^2)/(2) [formula]
The percent tumor growth inhibition was calculated on day 13 by comparing the average values of treated groups with that of control group. Tumor growth in saline treated control animals was taken to be 100%. Table 6. In-vivo anticancer activity of 2 against Ehrlich ascites carcinoma (solid)

[4] = test system: various human cancer cell lines; experiment: Cytotoxicity against various human cancer cell lines (summary statement); type: cell-based; settings: read-out: cytotoxicity against various human cancer cell lines, IC50
Description: The benzyl compounds were evaluated by Sulforhodamine B Assay as per reported method [Skehan etal., J. Natl. Cancer Inst.1990, 82, 1107]. The human cancer cell lines procured from National Cancer Institute, Frederick, U. S. A. were used in present study. Cells were grown in tissue culture flasks in complete growth medium (RPMI-1640 medium with 2 mM glutamine, pH 7.4 supplemented with 10% fetal bovine serum, 100 µg/ml streptomycin and 100 units/ml penicillin) in a carbon dioxide incubator (37°C, 5% CO2, 90% RH). The cells at subconfluent stage were harvested from the flask by treatment with trypsin (0.05% in PBS (pH 7.4) containing 0.02% EDTA). Cells with viability of more than 98%, as determined by trypan blue exclusion, were used for determination of cytotoxicity. The cell suspension required concentration of cells was prepared in complete growth medium. Stock solution of 2x10^-2 M of compounds were prepared in DMSO and further dilution was carried out complete growth medium containing 50µg/ml of gentamycin to obtained working test solution of required concentration. In vitro cytotoxicity against various human cancer cell lines was determined using 96-well cell culture plates. […] Cell growth was measured by staining with sulforhodamine B dye. […] The optical density (OD) was recorded on ELISA reader at 540nm. […]

## COc1cc(C2c3c(cc(OC)c(OC)c3OC)C(=O)C2Cc2ccc3c(c2)OCO3)cc(OC)c1OC (stereo not shown) [Compound 2, 2-(3",4"-methylenedioxybenzyl)-3-(3',4',5'-trimethoxyphenyl)-4,5,6-trimethoxy-indan-1-one]
[1]
  IC50: 2080 nM
[2]; 20 mg/kg i/p day 1-9, Day 12
  %Tumor Growth Inhibition: 67.64%
  Av, Volume of ascitic fluid: 6.31 mL
  Av. No. of tumor cells: 44.78 x 10^7
  Av. Weight of ascitic fluid: 6.02 g
[2]; 20 mg/kg i/p day 1-9, Day 12, control = 100
  % Tumor cell growth: 32.36%
[2]; 20 mg/kg i/p day 1-9, Day 12, dead/total animals
  Mortality: 0/7
[2]; 20 mg/kg i/p day 1-9, EAC-bearing female Swiss mice, Day 1
  Body weight Day 1: 21.0 g
[2]; 20 mg/kg i/p day 1-9, EAC-bearing female Swiss mice, Day 5
  Body weight Day 5: 21.86 g
[2]; 20 mg/kg i/p day 1-9, EAC-bearing female Swiss mice, Day 9
  Body weight Day 9: 22.28 g
[2]; 20 mg/kg i/p day 1-9, EAC-bearing female Swiss mice, Day 12
  Body weight Day 12: 22.66 g
[2]; Ehrlich ascites carcinoma, 20mg/kg dose, relative to compound 12
  better activity (in-vivo) over the parent compound 12: 48.72%
[3]; 20 mg/kg i/p day 1-9, Day 13
  Day 13 Av. Tumor weights: 1178.35 ± 32.72 mg
[3]; 20 mg/kg i/p day 1-9, day 13
  %Tumor Growth Inhibition: 42.77% and 42.771%
[3]; 20 mg/kg i/p day 1-9, dead/total animals
  Mortality: 0/7
[3]; 20 mg/kg i/p day 1-9, male Swiss mice, Day 13
  Day 13 Av. Body weights: 23.28 g
[3]; 20 mg/kg i/p day 1-9, male Swiss mice, day 1
  Av. Body weights (g) of animals on days 1: 21.42 g
[3]; solid tumour, 20mg/kg dose, relative to compound 12
  better activity (in-vivo) over the parent compound 12: 19.1%
[4]
  IC50: 1000 to 3000 nM
